Results as given in BigSolDB 2.1.

In the case of Cc1nc2n(c(=O)c1CCN1CCC(c3noc4cc(F)ccc34)CC1)CCCC2O (stereo not given), the solubility (mole fraction) (in 1,4-dioxane, 288.15 K) is reported as 0.00042, the solubility (mole fraction) (in 1,4-dioxane, 293.15 K) is reported as 0.000595 and the solubility (mole fraction) (in 1,4-dioxane, 298.15 K) is reported as 0.000832. For the same compound, the solubility (mole fraction) (in 1,4-dioxane, 303.15 K) was 0.00115, the solubility (mole fraction) (in 1,4-dioxane, 308.15 K) was 0.00159 and the solubility (mole fraction) (in 1,4-dioxane, 313.15 K) was 0.00214. It also gave a solubility (mole fraction) (in 1,4-dioxane, 318.15 K) of 0.00292, a solubility (mole fraction) (in 1,4-dioxane, 323.15 K) of 0.00382 and a solubility (mole fraction) (in 1,4-dioxane, 328.15 K) of 0.00495. For the same compound, the solubility (mole fraction) (in THF, 288.15 K) was 0.000399, the solubility (mole fraction) (in THF, 293.15 K) was 0.00055 and the solubility (mole fraction) (in THF, 298.15 K) was 0.000757. For the same compound, the solubility (mole fraction) (in THF, 303.15 K) was 0.00101, the solubility (mole fraction) (in THF, 308.15 K) was 0.00134 and the solubility (mole fraction) (in THF, 313.15 K) was 0.00177. It also gave a solubility (mole fraction) (in THF, 318.15 K) of 0.00232, a solubility (mole fraction) (in THF, 323.15 K) of 0.00312 and a solubility (mole fraction) (in THF, 328.15 K) of 0.00391. For the same compound, the solubility (mole fraction) (in acetone, 288.15 K) was 6.42e-05, the solubility (mole fraction) (in acetone, 293.15 K) was 8.92e-05 and the solubility (mole fraction) (in acetone, 298.15 K) was 0.000126. The solubility (mole fraction) (in acetone, 303.15 K) was 0.000171, the solubility (mole fraction) (in acetone, 308.15 K) was 0.000233 and the solubility (mole fraction) (in acetone, 313.15 K) was 0.000314. For the same compound, the solubility (mole fraction) (in acetone, 318.15 K) was 0.000438, the solubility (mole fraction) (in acetone, 323.15 K) was 0.000556 and the solubility (mole fraction) (in acetone, 328.15 K) was 0.000702. It also gave a solubility (mole fraction) (in acetonitrile, 288.15 K) of 2.45e-05, a solubility (mole fraction) (in acetonitrile, 293.15 K) of 3.58e-05 and a solubility (mole fraction) (in acetonitrile, 298.15 K) of 5.16e-05. For the same compound, the solubility (mole fraction) (in acetonitrile, 303.15 K) was 7.32e-05, the solubility (mole fraction) (in acetonitrile, 308.15 K) was 0.000101 and the solubility (mole fraction) (in acetonitrile, 313.15 K) was 0.000143. The solubility (mole fraction) (in acetonitrile, 318.15 K) was 0.000195, the solubility (mole fraction) (in acetonitrile, 323.15 K) was 0.000263 and the solubility (mole fraction) (in acetonitrile, 328.15 K) was 0.00035. For the same compound, the solubility (mole fraction) (in ethanol, 288.15 K) was 6.58e-05, the solubility (mole fraction) (in ethanol, 293.15 K) was 9.25e-05 and the solubility (mole fraction) (in ethanol, 298.15 K) was 0.000129. For the same compound, the solubility (mole fraction) (in ethanol, 303.15 K) was 0.000178, the solubility (mole fraction) (in ethanol, 308.15 K) was 0.000236 and the solubility (mole fraction) (in ethanol, 313.15 K) was 0.000338. The solubility (mole fraction) (in ethanol, 318.15 K) was 0.00045, the solubility (mole fraction) (in ethanol, 323.15 K) was 0.00059 and the solubility (mole fraction) (in ethanol, 328.15 K) was 0.00079. It also gave a solubility (mole fraction) (in ethyl acetate, 288.15 K) of 5.95e-05, a solubility (mole fraction) (in ethyl acetate, 293.15 K) of 8.43e-05 and a solubility (mole fraction) (in ethyl acetate, 298.15 K) of 0.000118. For the same compound, the solubility (mole fraction) (in ethyl acetate, 303.15 K) was 0.000164, the solubility (mole fraction) (in ethyl acetate, 308.15 K) was 0.000225 and the solubility (mole fraction) (in ethyl acetate, 313.15 K) was 0.000311. The solubility (mole fraction) (in ethyl acetate, 318.15 K) was 0.000415, the solubility (mole fraction) (in ethyl acetate, 323.15 K) was 0.00056 and the solubility (mole fraction) (in ethyl acetate, 328.15 K) was 0.000742. It also gave a solubility (mole fraction) (in isopropanol, 288.15 K) of 2.65e-05, a solubility (mole fraction) (in isopropanol, 293.15 K) of 3.97e-05 and a solubility (mole fraction) (in isopropanol, 298.15 K) of 5.8e-05. The solubility (mole fraction) (in isopropanol, 303.15 K) was 8.16e-05, the solubility (mole fraction) (in isopropanol, 308.15 K) was 0.00013 and the solubility (mole fraction) (in isopropanol, 313.15 K) was 0.000179. For the same compound, the solubility (mole fraction) (in isopropanol, 318.15 K) was 0.000269, the solubility (mole fraction) (in isopropanol, 323.15 K) was 0.000363 and the solubility (mole fraction) (in isopropanol, 328.15 K) was 0.000502. For the same compound, the solubility (mole fraction) (in methanol, 288.15 K) was 0.000103, the solubility (mole fraction) (in methanol, 293.15 K) was 0.000143 and the solubility (mole fraction) (in methanol, 298.15 K) was 0.000192. The solubility (mole fraction) (in methanol, 303.15 K) was 0.00026, the solubility (mole fraction) (in methanol, 308.15 K) was 0.000347 and the solubility (mole fraction) (in methanol, 313.15 K) was 0.000463. It also gave a solubility (mole fraction) (in methanol, 318.15 K) of 0.000618, a solubility (mole fraction) (in methanol, 323.15 K) of 0.000815 and a solubility (mole fraction) (in methanol, 328.15 K) of 0.00105. The solubility (mole fraction) (in methyl acetate, 288.15 K) was 7.29e-05, the solubility (mole fraction) (in methyl acetate, 293.15 K) was 0.000101 and the solubility (mole fraction) (in methyl acetate, 298.15 K) was 0.000141. For the same compound, the solubility (mole fraction) (in methyl acetate, 303.15 K) was 0.000196, the solubility (mole fraction) (in methyl acetate, 308.15 K) was 0.000266 and the solubility (mole fraction) (in methyl acetate, 313.15 K) was 0.000361. The solubility (mole fraction) (in methyl acetate, 318.15 K) was 0.000503, the solubility (mole fraction) (in methyl acetate, 323.15 K) was 0.000643 and the solubility (mole fraction) (in methyl acetate, 328.15 K) was 0.000814. The solubility (mole fraction) (in n-butanol, 288.15 K) was 8.99e-05, the solubility (mole fraction) (in n-butanol, 293.15 K) was 0.000128 and the solubility (mole fraction) (in n-butanol, 298.15 K) was 0.000179. For the same compound, the solubility (mole fraction) (in n-butanol, 303.15 K) was 0.000249, the solubility (mole fraction) (in n-butanol, 308.15 K) was 0.000347 and the solubility (mole fraction) (in n-butanol, 313.15 K) was 0.000443. For the same compound, the solubility (mole fraction) (in n-butanol, 318.15 K) was 0.000587, the solubility (mole fraction) (in n-butanol, 323.15 K) was 0.000829 and the solubility (mole fraction) (in n-butanol, 328.15 K) was 0.00115. For the same compound, the solubility (mole fraction) (in n-butyl acetate, 288.15 K) was 5.19e-05, the solubility (mole fraction) (in n-butyl acetate, 293.15 K) was 7.43e-05 and the solubility (mole fraction) (in n-butyl acetate, 298.15 K) was 0.000105. For the same compound, the solubility (mole fraction) (in n-butyl acetate, 303.15 K) was 0.000147, the solubility (mole fraction) (in n-butyl acetate, 308.15 K) was 0.000204 and the solubility (mole fraction) (in n-butyl acetate, 313.15 K) was 0.000282. For the same compound, the solubility (mole fraction) (in n-butyl acetate, 318.15 K) was 0.000381, the solubility (mole fraction) (in n-butyl acetate, 323.15 K) was 0.000514 and the solubility (mole fraction) (in n-butyl acetate, 328.15 K) was 0.000692. For the same compound, the solubility (mole fraction) (in n-hexanol, 288.15 K) was 7.11e-05, the solubility (mole fraction) (in n-hexanol, 293.15 K) was 0.00012 and the solubility (mole fraction) (in n-hexanol, 298.15 K) was 0.000175. It also gave a solubility (mole fraction) (in n-hexanol, 303.15 K) of 0.000244, a solubility (mole fraction) (in n-hexanol, 308.15 K) of 0.000332 and a solubility (mole fraction) (in n-hexanol, 313.15 K) of 0.000465. The solubility (mole fraction) (in n-hexanol, 318.15 K) was 0.000682, the solubility (mole fraction) (in n-hexanol, 323.15 K) was 0.000958 and the solubility (mole fraction) (in n-hexanol, 328.15 K) was 0.00125. For the same compound, the solubility (mole fraction) (in n-pentanol, 288.15 K) was 9.07e-05, the solubility (mole fraction) (in n-pentanol, 293.15 K) was 0.000129 and the solubility (mole fraction) (in n-pentanol, 298.15 K) was 0.000184. It also gave a solubility (mole fraction) (in n-pentanol, 303.15 K) of 0.000258, a solubility (mole fraction) (in n-pentanol, 308.15 K) of 0.000364 and a solubility (mole fraction) (in n-pentanol, 313.15 K) of 0.000553. The solubility (mole fraction) (in n-pentanol, 318.15 K) was 0.000742, the solubility (mole fraction) (in n-pentanol, 323.15 K) was 0.000963 and the solubility (mole fraction) (in n-pentanol, 328.15 K) was 0.00128. The solubility (mole fraction) (in n-propanol, 288.15 K) was 7.03e-05, the solubility (mole fraction) (in n-propanol, 293.15 K) was 0.000102 and the solubility (mole fraction) (in n-propanol, 298.15 K) was 0.000133. For the same compound, the solubility (mole fraction) (in n-propanol, 303.15 K) was 0.000214, the solubility (mole fraction) (in n-propanol, 308.15 K) was 0.000298 and the solubility (mole fraction) (in n-propanol, 313.15 K) was 0.000391. For the same compound, the solubility (mole fraction) (in n-propanol, 318.15 K) was 0.00056, the solubility (mole fraction) (in n-propanol, 323.15 K) was 0.000768 and the solubility (mole fraction) (in n-propanol, 328.15 K) was 0.00107. For the same compound, the solubility (mole fraction) (in n-propyl acetate, 288.15 K) was 5.47e-05, the solubility (mole fraction) (in n-propyl acetate, 293.15 K) was 7.82e-05 and the solubility (mole fraction) (in n-propyl acetate, 298.15 K) was 0.000111. For the same compound, the solubility (mole fraction) (in n-propyl acetate, 303.15 K) was 0.000155, the solubility (mole fraction) (in n-propyl acetate, 308.15 K) was 0.000214 and the solubility (mole fraction) (in n-propyl acetate, 313.15 K) was 0.000294. For the same compound, the solubility (mole fraction) (in n-propyl acetate, 318.15 K) was 0.000398, the solubility (mole fraction) (in n-propyl acetate, 323.15 K) was 0.000537 and the solubility (mole fraction) (in n-propyl acetate, 328.15 K) was 0.000728.
